| Compound | melting point |
| --- | --- |
| O=C(N[C@H]1CSc2ccc(C(F)(F)F)cc2NC1=O)OCc1ccccc1 | 120 to 123 °C |
| O=C(O)c1cnc2ccc(C3CCCCC3)cc2c1O | 263 to 265 °C |
| CCn1cc(C(=O)O)c(=O)c2ccc(N3CCN(c4ncccn4)CC3)c(OC(F)F)c21 | > 300 °C |
| COC1CN2[C@H]3CC[C@@H]2[C@@H]1[C@@H](c1ccc(Cl)c(Cl)c1)C3 (stereo partly specified) | 139 to 141 °C |
| Cc1cc(-n2c(C)nc3ccccc32)ccc1[N+](=O)[O-] | 144 to 146 °C |
| COC(=O)c1cc(C(=O)NNC(C)=O)c2cc(Cc3ccc(F)cc3)cnc2c1O | 208 to 209 °C |
| CC(=O)CCC(CCC(C)=O)(C(C)=O)C(C)=O | 59 °C |
| CCCOc1ccc2c(c1)C(N(C)S(C)(=O)=O)=CC(C)(C)O2 | 93 to 95 °C |
| CN(Cc1ccc(C(=O)O)cc1)c1ccc(Cl)cc1 | 188 to 191 °C |
| Cc1ccc(C(=O)CCC(=O)c2ccccc2)s1 | 122 °C |
| COC(=O)Cc1ccccc1Cc1ccccc1C(=O)O | 121 to 123 °C |
| COc1cc(Nc2c(C#N)cnc3cc4cc(OC)c(OCCCl)cc4cc23)c(Cl)cc1F | 193 to 204 °C |
| COC(=O)Cc1ccc2c(c1)CC(NS(=O)(=O)c1ccc(Cl)cc1)C2 (stereo unspecified) | 80 to 82 °C |
| CN1CC[C@@H](c2c(O)cc(O)c3c(=O)cc(-c4cccnc4Cl)oc23)[C@@H]1CO | 125 to 127 °C |
| CNc1cc(N)c(C(=O)O)cc1[N+](=O)[O-] | 260 to 272 °C |
| COc1cc(N2CCC(N(C)C)C2)ccc1Nc1ncc2ccc(-c3ccccc3OC)n2n1 (stereo unspecified) | 70 to 78 °C |
| C=CCOC(=O)NCc1ccc(C(=O)O)cc1 | 175 to 177 °C |
| COCCOc1nc(Nc2cccc(NS(C)(=O)=O)c2)nc2[nH]cnc12 | 201 to 204 °C |
| Cn1c(C(F)(F)F)cc(=O)n(-c2ccc3snc(-c4sccc4CO)c3c2)c1=O | 168 to 169 °C |
| O=C(O)C1=Cc2cc(F)cc(F)c2OC1C(F)(F)F (stereo unspecified) | 207 to 211 °C |
| Cn1c(=O)cc(-c2cccc(Cl)c2)c2cc(C(O)c3cncn3Cc3ccc(C#N)cc3)ccc21 (stereo unspecified) | 150 °C |
| COc1cccc(C(=O)OC(=C2C(=O)N(C(N)=O)c3cc(Cl)c(F)cc32)c2cccs2)c1 | 196 to 220 °C |
| C=CCNC(=O)N1CC(OCc2ccc(Cl)c(Cl)c2)C1 | 88 to 89 °C |
| COc1ccc(C2CCCN(C(=O)C(F)(F)F)C2)cc1N (stereo unspecified) | 88 °C |
| c1ccc(COC2CCN(Cc3c[nH]c4ccccc34)CC2)cc1 | 143 to 145 °C |
| Cc1n[nH]c(C)c1-c1cccc(OC2SCC(O)C(O)C2O)c1 (stereo unspecified) | 213 °C |

| Compound | melting point |
| --- | --- |
| NNC1=NC(=O)C(=Cc2cccc(-c3cc(F)c(O)c(C45CC6CC(CC(C6)C4)C5)c3)c2)S1 | 303 to 308 °C |
| O=C(NC(Cc1ccc(OCc2ccc(Cl)cc2)cc1)C(=O)O)c1cc2ccc(-c3ccc(Cl)cc3)cc2o1 (stereo unspecified) | 195 °C |
| CC(=S)c1cncn1C(c1ccccc1)c1ccccc1 | 98 °C |
| CCC(C(=O)OC1CC(=O)NC1=O)c1ccccc1 (stereo unspecified) | 96.5 to 97.5 °C |
| NC(=O)C1CCc2[nH]c3cc(Cl)c(F)cc3c2C1 (stereo unspecified) | 245 to 246 °C |
| CCCCN(Cc1ccc(-c2ccccc2S(=O)(=O)NC(=O)c2ccccc2Cl)cc1)C(=O)N(C)c1ccccc1C(F)(F)F | > 60 °C |
| COc1cc2[nH]c(C)c(C(=O)C(=O)N3CCC(Oc4ccc(C(F)(F)F)cc4)CC3)c2cc1OC | 211 to 213 °C |
| Cc1ccc(COC(=O)CCC2CCC(=O)N2)cc1 (stereo unspecified) | 71 to 72 °C |
| O=C(O)CCC1(NC(=O)c2ccc(Cl)c(Cl)c2)C(=O)N(CCCc2ccccc2)c2ccccc21 (stereo unspecified) | 242 to 243 °C |
| CCCCCCCCCCCCCCOc1ccc(C(=O)OC)cc1OCCCCCCCCCCCCCC | 50 to 51 °C |
| NC(=O)c1c(N2CCN(Cc3ccccc3)CC2)nn2c(-c3cccc(C(F)(F)F)c3)ccnc12 | 252 to 254 °C |
| Nc1c(CC(=O)O)cccc1Nc1ccccc1Cl | 230 to 232 °C |
| COc1ccc(-c2cncc(OC3SCC(O)C(O)C3O)c2)cc1F (stereo unspecified) | 200 °C |
| COc1nc(C)nc(NC(=N)SC)n1 | 112 °C |
| CCOC(=O)CCn1c(=O)[nH]c2ccccc2c1=O | 192 to 194 °C |
| O=C1CCC(c2ccc(O)cc2)=NN1 | 157 to 159 °C |
| CCC/C=C/C(=O)NC(=O)OC(C)(C)C | 71 to 72 °C |
| O=C(Nc1ccc(C(=O)N2Cc3ccccc3Cc3ccccc32)cc1)c1ccccc1Cl | 110 to 115 °C |
| CN1N=C(c2ccc(F)cc2)c2cc3nsnc3cc2CS1(=O)=O | 272 to 275 °C |
| Cc1oc(-c2ccccc2)nc1COc1ccc(COc2ccc3ccccc3c2CCC(=O)O)cc1 | 161 to 162 °C |
| O=C(O)C(S)c1ccc(Cl)cc1 (stereo unspecified) | 123 to 125 °C |
| COC(=O)c1cnc2c(C)cc(C)cc2c1-c1ccccc1Cl | 117 to 118 °C |
| CC(=C=CC(C)(C)c1ccc(Cl)cc1)C(=O)O | 106 to 108 °C |
| CCOC(=O)C1OC1C(=O)NC(CC(C)C)C(=O)NCCC(C)CO (stereo unspecified) | 92 to 95 °C |
| CC1CCN(c2cc3nc(C(C)(C)C)sc3cc2N=C=S)CC1 | 54 to 58 °C |
| Cc1ncccc1CN1CCC(=C2c3ccc(Cl)cc3CCc3cccnc32)CC1 | 81.4 to 87.2 °C |

| Compound | melting point |
| --- | --- |
| CC(C)c1nc(CCOC(=O)N[C@H](C(=O)N[C@@H](Cc2ccccc2)[C@@H](O)C[C@H](Cc2ccccc2)NC(=O)OCc2cncs2)C(C)C)cs1 | 159 to 160 °C |
| C[C@H]1Cn2c(=O)[nH]c3ccc(Br)c(c32)CN1C(=O)OC(C)(C)C | 229 °C |
| Cc1cccc(-c2n[nH]cc2-c2ccc(F)c(-c3cn(CCN(C)C)cn3)c2)n1 | 130 to 131 °C |
| C#CCN(c1ccc(C(=O)NC(CCc2nnn[nH]2)C(=O)O)cc1)C(C)c1cc2c(=O)[nH]c(C)nc2cc1C (stereo unspecified) | 207 °C |
| CC1=C(c2ccc(OCC(=O)O)c(Cl)c2Cl)CC(C)CC1=O (stereo unspecified) | 170 to 173 °C |
| O=C(O)CCCCCCCCCCSc1nc(-c2ccccc2)c(-c2ccccc2)[nH]1 | 193 to 195 °C |
| O=c1c2ccccc2nnn1CCO | 114 °C |
| CCN1CCc2ccc(Nc3ncc(C#N)c(Nc4ccccc4C(=O)NC)n3)cc2CC1 | 164 to 170 °C |
| O=c1[nH]c2c(Cl)cc(Cl)cc2c(=O)n1CCCN1CC=C(c2ccc(Cl)cc2)CC1 | 197 to 199 °C |
| CC(=O)N(c1ccc(C(F)(F)F)cc1)c1nccc(-c2cccc(Cl)c2)n1 | 129 to 130 °C |
| Cc1c(-c2cccc(F)c2)nc2n1CCc1ccccc1C2OC1CCN(C)CC1 (stereo unspecified) | 132 °C |
| COC(=O)c1ccc2c(c1)C=CC(=CCl)CO2 | 72 to 77 °C |
| CCN1CCC(c2ccc(Br)cc2)CC1 | 33 to 34 °C |
| Cn1ncnc1COc1nn2c(-c3cccnc3)nncc2c1-c1ccccc1F | 164 to 166 °C |
| FC(F)(F)c1ccc2nc(N3CCN(Cc4c(Cl)cccc4Cl)CC3)[nH]c2c1 | 254 to 256 °C |
| CCOc1sc(C)nc1S(N)(=O)=O | 118 to 120 °C |
| Cc1cccc2c1nc(-c1cccc(Cl)c1[N+](=O)[O-])n2CC(O)C(C)(C)C (stereo unspecified) | 236 to 237 °C |
| CC(C)NCC(O)COC1c2ccccc2C(=O)N1c1cccc(Cl)c1 (stereo unspecified) | 128 °C |
| CN(C)C1CCN2CCc3ccccc3C2(c2ccc(F)cc2)C1 (stereo unspecified) | 159 to 167 °C |
| O=CCCNC(=O)c1cc(Br)c(Br)[nH]1 | 160 to 163 °C |
| Cc1c(Br)ccc(F)c1N | 49 to 50 °C |
| COc1cccc(CCC(=O)C2C(=O)CCC2=O)c1O | 108 to 109 °C |
| Cc1c(NC(=O)c2ccc(-c3ccc(F)cc3)cc2)ccc2cc(C(C)N3CCCC3)cnc12 (stereo unspecified) | 179 to 182 °C |
| COc1cccc(C(O)c2cc(Cl)ccc2N(CC(N)=O)S(=O)(=O)c2ccc(OC)c(OC)c2)c1 (stereo unspecified) | 100 °C |
| NCC(c1ccccc1)C(CN)c1ccccc1 (stereo unspecified) | 144 to 145 °C |
| Cc1ccc(S(=O)(=O)NN)cc1 | 110 °C |

| Compound | melting point |
| --- | --- |
| Cc1ccccc1CN(CC(=O)OC(C)(C)C)S(=O)(=O)c1ccc2c(Cl)cnc(Cl)c2c1 | 96 to 98 °C |
| CCOC(=O)CCCCCCCn1c(=O)[nH]c2ccccc2c1=O | 88 to 89 °C |
| c1ccc(-c2ccc(CCOc3ncnc4ccccc34)cc2)cc1 | 72 to 74 °C |
| CS(=O)(=O)c1cccc(-c2ccccc2NC(=S)NC(=O)c2ccccc2)c1 | 179 to 180 °C |
| CCOC(=O)c1ccc(NC(=O)C=C2c3ccccc3CCc3ccccc32)cc1 | 178 to 180 °C |
| COC(=O)c1cccc(-c2ccc(OC)c(OC3CCCC3)c2)c1 | 85 to 87 °C |
| OCCOc1ccc(-c2nc(-c3ccc(OCCO)cc3O)nc(-c3ccc(OCCO)cc3O)n2)cc1 | 169 °C |
| COc1ncnc(-c2ccc(Cl)cc2Cl)c1C#N | 107 to 109 °C |
| COC(=O)c1cc(-c2nn(C)c(SC)c2C)c(F)cc1Cl | 82 to 83 °C |
| CCC#CCOc1cc2c(cc1/C=C/c1ccc(C(=O)O)cc1)C(C)(C)CCC2(C)C | 144 to 145 °C |
| OCCN1CCN(C2=Nc3cc(F)ccc3Nc3ccsc32)CC1 | 205 to 210 °C |
| Cc1cccc2c3c([nH]c12)CCCC3=O | > 247 °C |
| CC1(C)COc2cc(Cl)c(Cl)cc2C(O)(c2cccnc2)C1 (stereo unspecified) | 166 °C |
| OCc1cc(Cl)c(F)c(Cl)c1F | 55 °C |
| O=C(O)CCC(=O)c1ccc(-c2ccc(Cl)s2)cc1 | 212 to 213 °C |
| C=CC1(C=C)OC(C(=O)O)Oc2ccc(Cl)cc21 (stereo unspecified) | 144 °C |
| COc1ccc(N2C(=O)[C@H](O)[C@@H]2c2ccccc2)cc1 | 211 to 212 °C |
| CC(=O)c1ccc(-c2cnco2)cc1 | 128 to 130 °C |
| COc1cc(CCCCC2OC(=O)NC2=O)ccc1OCc1coc(/C=C/c2ccc3ccccc3c2)n1 (stereo unspecified) | 169 to 170 °C |
| O=c1c2c(O)cc(OCC3CS3)cc2oc2ccc3ccccc3c12 (stereo unspecified) | 167 to 168 °C |
| O=C1CC(c2cccc3c2OCO3)=Nc2ccc(N3CCOCC3)cc21 | 350 to 352 °C |
| CCOC(=O)c1ccc(CBr)c(F)c1 | 42.5 to 44 °C |
| CC(=O)N(C)C(c1ccc(F)cc1)c1ccc(F)cc1 | 99 to 100 °C |
